Data as given in patent US9328112B2, “Tetracyclic CDK9 kinase inhibitors” (AbbVie Inc., priority 2014, dated 2016).

Assays:
[1] = system: H929 cells; assay: Cell viability assay (Cell TiterGlo); assay type: cell-based; details: Cell TiterGlo luminescence
Experimental: The cell viability assay was performed using H929 cells. Cells were seeded in 96-well plates at 10,000 cells/well and, after overnight incubation, treated with compounds in a dose response of 3-fold dilutions from 10 μM to 0.005 μM ([…], 0.1% final DMSO concentration). After 24 hours at 37° C., cell viability was measured using Cell TiterGlo reagent (Promega) with a luminescence reader.

[2] = biological target: CDK9/Cyclin T1 (Homo sapiens (Human), UniProt P50750); assay: CDK9 enzyme assay (LANCE ULight TR-FRET kinase assay); assay type: biochemical; details: 1000 μM ATP, 100 nM ULight MBP, kinase reaction 1 hour
Method in brief: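 Human CDK9/Cyclin T1 phosphorylating 100 nM ULight-MBP with 1000 μM ATP in HEPES/MgCl2 buffer, 1 h reaction. Stopped with 20 mM EDTA plus 0.5 nM Eu anti-phospho-MBP antibody, incubated 1 h, read by TR-FRET (ex 320 nm, em 615/665 nm).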

[3] = Homo sapiens, NCI-H929, 24 hours at 37° C.

CDK9/Cyclin T1, sequence (P50750 whole entry): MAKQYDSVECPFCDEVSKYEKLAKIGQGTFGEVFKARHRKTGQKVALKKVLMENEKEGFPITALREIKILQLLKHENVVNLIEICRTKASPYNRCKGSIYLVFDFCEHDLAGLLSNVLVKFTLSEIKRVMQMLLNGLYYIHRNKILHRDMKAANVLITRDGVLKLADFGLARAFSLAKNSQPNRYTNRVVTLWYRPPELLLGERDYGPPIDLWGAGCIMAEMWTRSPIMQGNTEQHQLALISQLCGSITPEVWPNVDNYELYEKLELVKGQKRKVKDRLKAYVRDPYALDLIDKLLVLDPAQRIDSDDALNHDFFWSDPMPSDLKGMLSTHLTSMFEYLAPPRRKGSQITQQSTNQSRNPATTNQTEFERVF
CDK9/Cyclin T1, sequence (O60563 whole entry partner): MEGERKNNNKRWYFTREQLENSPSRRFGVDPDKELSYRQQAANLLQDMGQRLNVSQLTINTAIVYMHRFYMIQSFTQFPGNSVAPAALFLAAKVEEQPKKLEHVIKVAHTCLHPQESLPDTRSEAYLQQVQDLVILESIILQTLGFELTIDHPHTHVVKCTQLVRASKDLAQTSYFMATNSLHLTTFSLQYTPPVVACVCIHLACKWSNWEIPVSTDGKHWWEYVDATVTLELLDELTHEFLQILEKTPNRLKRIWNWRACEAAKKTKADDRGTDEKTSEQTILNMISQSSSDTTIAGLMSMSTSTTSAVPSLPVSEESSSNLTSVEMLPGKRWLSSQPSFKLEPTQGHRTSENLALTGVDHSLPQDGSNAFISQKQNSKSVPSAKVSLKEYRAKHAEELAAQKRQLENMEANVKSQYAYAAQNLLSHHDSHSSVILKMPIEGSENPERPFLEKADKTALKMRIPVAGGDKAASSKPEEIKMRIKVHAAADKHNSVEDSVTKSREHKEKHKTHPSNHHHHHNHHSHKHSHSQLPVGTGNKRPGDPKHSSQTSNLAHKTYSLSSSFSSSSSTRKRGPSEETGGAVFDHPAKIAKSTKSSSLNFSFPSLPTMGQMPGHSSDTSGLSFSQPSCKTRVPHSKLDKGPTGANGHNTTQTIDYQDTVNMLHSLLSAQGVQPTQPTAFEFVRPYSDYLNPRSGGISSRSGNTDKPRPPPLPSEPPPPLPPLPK

| Compound | IC50 [1, 3] | IC50 [2] | IC50 ([1]; 24 hours at 37° C.) |
| --- | --- | --- | --- |
| CC[C@H]1c2c(C3=CCN([C@H]4C[C@@H](C(=O)OC)C4)CC3)[nH]c3nccc(c23)-c2cc(F)ccc2N1C [Example 186, methyl cis-3-{4-[(6S)-6-ethyl-10-fluoro-7-methyl-6,7-dihydro-4H-3,4,7-triazadibenzo[cd,f]azulen-5-yl]-3,6-dihydropyridin-1(2H)-yl}cyclobutanecarboxylate] | 13 nM | 64 nM | – |
| CN1Cc2c(C3=CCNCC3)[nH]c3ncc(F)c(c23)-c2ccccc21 [Example 159, 1-fluoro-7-methyl-5-(1,2,3,6-tetrahydropyridin-4-yl)-6,7-dihydro-4H-3,4,7-triazadibenzo[cd,f]azulene] | 8 nM | 34 nM | – |
| CCC[C@H](NC1CC=C(c2[nH]c3nccc4c3c2CN(C)c2ccc(F)cc2-4)CC1)C(=O)O (stereo partly drawn) [Example 39, N-[4-(10-fluoro-7-methyl-6,7-dihydro-4H-3,4,7-triazadibenzo[cd,f]azulen-5-yl)cyclohex-3-en-1-yl]-L-norvaline] | 99 nM | 130 nM | – |
| CN(CCO)C(=O)CN1CC=C(c2[nH]c3nccc4c3c2CN(C)c2ccc(F)cc2-4)C(C)(C)C1 [Example 116, 2-[4-(10-fluoro-7-methyl-6,7-dihydro-4H-3,4,7-triazadibenzo[cd,f]azulen-5-yl)-3,3-dimethyl-3,6-dihydropyridin-1(2H)-yl]-N-(2-hydroxyethyl)-N-methylacetamide] | 1700 nM | 890 nM | – |
| CN1Cc2c(C3=CCN(CC(=O)N4CCC[C@H]4CO)CC3)[nH]c3nccc(c23)-c2cc(F)c(F)cc21 [Example 147, 2-[4-(9,10-difluoro-7-methyl-6,7-dihydro-4H-3,4,7-triazadibenzo[cd,f]azulen-5-yl)-3,6-dihydropyridin-1(2H)-yl]-1-[(2S)-2-(hydroxymethyl)pyrrolidin-1-yl]ethanone] | 6 nM | 45 nM | – |
| CN1Cc2c(C3=CCN(C4CC(C(=O)O)C4)CC3)[nH]c3ncc(F)c(c23)-c2cc(F)ccc21 (stereo not shown) [Example 193, 3-[4-(1,10-difluoro-7-methyl-6,7-dihydro-4H-3,4,7-triazadibenzo[cd,f]azulen-5-yl)-3,6-dihydropyridin-1(2H)-yl]cyclobutanecarboxylic acid] | 11 nM | 76 nM | – |
| CN1Cc2c(C3=CCN(S(C)(=O)=O)CC3)[nH]c3nccc(c23)-c2cccnc21 [Example 138, 7-methyl-5-[1-(methylsulfonyl)-1,2,3,6-tetrahydropyridin-4-yl]-6,7-dihydro-4H-3,4,7,8-tetraazadibenzo[cd,f]azulene] | 180 nM | 69 nM | – |
| CN(CC(O)CO)C(=O)CN1CC=C(c2[nH]c3nccc4c3c2CN(C)c2ccc(F)cc2-4)CC1 (stereo not shown) [Example 63, N-(2,3-dihydroxypropyl)-2-[4-(10-fluoro-7-methyl-6,7-dihydro-4H-3,4,7-triazadibenzo[cd,f]azulen-5-yl)-3,6-dihydropyridin-1(2H)-yl]-N-methylacetamide] | 90 nM | 38 nM | – |
| CN(C)C(=O)CN1CCC=C(c2[nH]c3nccc4c3c2CN(C)c2ccc(F)cc2-4)C1 [Example 97, 2-[5-(10-fluoro-7-methyl-6,7-dihydro-4H-3,4,7-triazadibenzo[cd,f]azulen-5-yl)-3,6-dihydropyridin-1(2H)-yl]-N,N-dimethylacetamide] | 580 nM | 420 nM | – |
| CNC(=O)N1CC2C=C(c3[nH]c4nccc5c4c3CN(C)c3ccc(F)cc3-5)CC2C1 (stereo not shown) [Example 76, 5-(10-fluoro-7-methyl-6,7-dihydro-4H-3,4,7-triazadibenzo[cd,f]azulen-5-yl)-N-methyl-3,3a,4,6a-tetrahydrocyclopenta[c]pyrrole-2(1H)-carboxamide] | 22 nM | 41 nM | – |
| CN1Cc2c(C3=CCN([C@H]4CC[C@H](CC(=O)O)CC4)CC3)[nH]c3nccc(c23)-c2cc(F)ccc21 [Example 130, {trans-4-[4-(10-fluoro-7-methyl-6,7-dihydro-4H-3,4,7-triazadibenzo[cd,f]azulen-5-yl)-3,6-dihydropyridin-1(2H)-yl]cyclohexyl}acetic acid] | 70 nM | 64 nM | – |
| CNC(=O)N1[C@H]2CC[C@@H]1C=C(c1[nH]c3nccc4c3c1CN(C)c1ccc(F)cc1-4)C2 [Example 57, (1R,5S)-3-(10-fluoro-7-methyl-6,7-dihydro-4H-3,4,7-triazadibenzo[cd,f]azulen-5-yl)-N-methyl-8-azabicyclo[3.2.1]oct-2-ene-8-carboxamide] | 2200 nM | 200 nM | – |
| CN(C)C(=O)CN1CCC=C(c2[nH]c3nccc4c3c2CN(C)c2ccc(F)cc2-4)CC1 [Example 88, 2-[4-(10-fluoro-7-methyl-6,7-dihydro-4H-3,4,7-triazadibenzo[cd,f]azulen-5-yl)-2,3,6,7-tetrahydro-1H-azepin-1-yl]-N,N-dimethylacetamide] | 150 nM | 150 nM | – |
| CN1Cc2c(C3=C[C@H]4CC[C@@H](C3)N4CC(=O)N(C)C3CC(O)C3)[nH]c3nccc(c23)-c2cc(F)ccc21 (stereo partly drawn) [Example 98, 2-[(1R,5S)-3-(10-fluoro-7-methyl-6,7-dihydro-4H-3,4,7-triazadibenzo[cd,f]azulen-5-yl)-8-azabicyclo[3.2.1]oct-2-en-8-yl]-N-(3-hydroxycyclobutyl)-N-methylacetamide] | 150 nM | 73 nM | – |
| CN1Cc2c(C3=CCN(CCS(=O)(=O)N(C)C)CC3)[nH]c3nccc(c23)-c2cc(F)ccc21 [Example 178, 2-[4-(10-fluoro-7-methyl-6,7-dihydro-4H-3,4,7-triazadibenzo[cd,f]azulen-5-yl)-3,6-dihydropyridin-1(2H)-yl]-N,N-dimethylethanesulfonamide] | 40 nM | 25 nM | – |
| CN1Cc2c(C3=CCNCC3)[nH]c3ncc(F)c(c23)-c2cc(F)ccc21 [Example 48, 1,10-difluoro-7-methyl-5-(1,2,3,6-tetrahydropyridin-4-yl)-6,7-dihydro-4H-3,4,7-triazadibenzo[cd,f]azulene] | 20 nM | 27 nM | – |
| CN1Cc2c(-c3cccc(CC(=O)O)c3)[nH]c3nccc(c23)-c2cc(F)ccc21 [Example 82, [3-(10-fluoro-7-methyl-6,7-dihydro-4H-3,4,7-triazadibenzo[cd,f]azulen-5-yl)phenyl]acetic acid] | 4700 nM | 100 nM | – |
| CN1CCc2c(C3=CCN([C@H]4C[C@H](C(=O)O)C4)CC3)[nH]c3nccc(c23)-c2cc(F)ccc21 [Example 190, trans-3-[4-(8-fluoro-5-methyl-1,3,4,5-tetrahydro-1,5,12-triazabenzo[4,5]cycloocta[1,2,3-cd]inden-2-yl)-3,6-dihydropyridin-1(2H)-yl]cyclobutanecarboxylic acid] | – | 160 nM | 190 nM |
| CNC(=O)N1CCC=C(c2[nH]c3nccc4c3c2CN(C)c2ccc(F)cc2-4)C1 [Example 96, 5-(10-fluoro-7-methyl-6,7-dihydro-4H-3,4,7-triazadibenzo[cd,f]azulen-5-yl)-N-methyl-3,6-dihydropyridine-1(2H)-carboxamide] | 680 nM | 180 nM | – |
| CNC(=O)N1CC=C(c2[nH]c3nccc4c3c2CN(C)c2ncccc2-4)CC1 [Example 139, N-methyl-4-(7-methyl-6,7-dihydro-4H-3,4,7,8-tetraazadibenzo[cd,f]azulen-5-yl)-3,6-dihydropyridine-1(2H)-carboxamide] | 180 nM | 94 nM | – |
| CN1Cc2c(C3=CCC(N[C@H](C(=O)O)C(C)(C)C)CC3)[nH]c3nccc(c23)-c2cc(F)ccc21 (stereo partly drawn) [Example 36, N-[4-(10-fluoro-7-methyl-6,7-dihydro-4H-3,4,7-triazadibenzo[cd,f]azulen-5-yl)cyclohex-3-en-1-yl]-3-methyl-L-valine] | 25 nM | 64 nM | – |
| CN1Cc2c(C3=CCN(CC(=O)N4CC[C@H](O)C4)CC3)[nH]c3ncc(F)c(c23)-c2cc(F)ccc21 [Example 73, 2-[4-(1,10-difluoro-7-methyl-6,7-dihydro-4H-3,4,7-triazadibenzo[cd,f]azulen-5-yl)-3,6-dihydropyridin-1(2H)-yl]-1-[(3S)-3-hydroxypyrrolidin-1-yl]ethanone] | 20 nM | 52 nM | – |
| CN1Cc2c(C3=CCN([C@H]4CC[C@@H](CC(=O)O)CC4)CC3)[nH]c3nccc(c23)-c2cc(F)ccc21 [Example 124, {cis-4-[4-(10-fluoro-7-methyl-6,7-dihydro-4H-3,4,7-triazadibenzo[cd,f]azulen-5-yl)-3,6-dihydropyridin-1(2H)-yl]cyclohexyl}acetic acid] | 88 nM | 48 nM | – |
| CN1Cc2c(C3=CCN(S(C)(=O)=O)CC3(C)C)[nH]c3nccc(c23)-c2cc(F)ccc21 [Example 113, 5-[3,3-dimethyl-1-(methylsulfonyl)-1,2,3,6-tetrahydropyridin-4-yl]-10-fluoro-7-methyl-6,7-dihydro-4H-3,4,7-triazadibenzo[cd,f]azulene] | 2700 nM | 650 nM | – |
| CN1Cc2c(C3=CCC(N[C@@H](Cc4ccccc4)C(=O)O)CC3)[nH]c3nccc(c23)-c2cc(F)ccc21 (stereo partly drawn) [Example 35, N-[4-(10-fluoro-7-methyl-6,7-dihydro-4H-3,4,7-triazadibenzo[cd,f]azulen-5-yl)cyclohex-3-en-1-yl]-L-phenylalanine] | 91 nM | 61 nM | – |
| CN1Cc2c(C3=CC4CCCC(C3)N4CC(=O)N3CCC[C@H]3CO)[nH]c3nccc(c23)-c2cc(F)ccc21 (stereo partly drawn) [Example 104, 2-[3-(10-fluoro-7-methyl-6,7-dihydro-4H-3,4,7-triazadibenzo[cd,f]azulen-5-yl)-9-azabicyclo[3.3.1]non-2-en-9-yl]-1-[(2S)-2-(hydroxymethyl)pyrrolidin-1-yl]ethanone] | 65 nM | 57 nM | – |
